Reference: US20090264415A2 (priority 2004, published 2009)
Where two headings read alike, the source gives them in different places.

Tests used:
[1] = system: phosphodiesterase-4 (PDE-4) extract from U937 cells; experiment: Phosphodiesterase-4 inhibiting activity (isotopic two-step method); format: biochemical; conditions: for IC50: 1.01 μM [3H]cAMP+cAMP
[2] = system: production of human TNF-α by PBMC in response to LPS; experiment: TNF-α assay (LPS-stimulated PBMC, sandwich ELISA); format: cell-based; conditions: LPS 1 μg/ml, 72 hours, read-out: TNF α
Summary of the method: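 Human PBMC isolated from heparinised blood by density gradient (10^6 cells/ml) stimulated with LPS at 1 μg/ml final, with test compound at 0.1, 1 and 10 μM, 72 h at 37° C, 5% CO2. Supernatant TNF-α quantified by sandwich ELISA against recombinant standard curve; % suppression calculated.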

[3] = system: peripheral blood mononuclear cells (PBMC) stimulated with allogeneic PBMC or EBV-transformed human B cells (RPMI1788); experiment: Mixed lymphocyte reaction (MLR) assay; format: cell-based; conditions: 50% suppression of the MLR, [3H]-thymidine incorporation, read-out: MLR
Summary of the method: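 Responder PBMC co-cultured in triplicate with 30 Gy-irradiated allogeneic PBMC or RPMI1788 B cells plus compound (DMSO stock 10 mM, diluted in medium). After 5 days at 37° C, 1 μCi [3H]-thymidine added for 16 h more; incorporated cpm counted and proliferation inhibition calculated.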

Row | melting point [°C] | SMILES | IC50 [2] [nM] | IC50 [3] [nM] | other results
1 | 142 to 143 | CCCCCOc1nc(N)nc2ccc(-c3cccc(F)c3)nc12 | – | – | –
2 | 191 to 192 | CC(C)Oc1nc(N)nc2ccc(-c3ccc(F)cc3)nc12 | – | – | –
3 | – | COc1ccc(-c2ccc3nc(C)nc(N4CCN(C(=O)Nc5cccc(C)c5)CC4)c3n2)cc1OC [Example 11] | 500 | 26 | PDE-4 (% inhibition) ([1]; @ 0.5 μM): 69% @ 0.5 μM
4 | – | COc1ccc(-c2ccc3nc(N)nc(N4CCN(C(=O)Nc5cccc(Cl)c5)CC4)c3n2)cc1O [Example 212] | – | – | PDE-4 (% inhibition) ([1]; @ 0.9 μM): 43% @ 0.9 μM; IC50 ([2]; Homo sapiens, PBMC): 900 nM; IC50 ([3]; Homo sapiens, RPMI-1788): 40 nM
5 | 188 to 189 | CCOc1nc(N)nc2ccc(-c3ccc(F)cc3)nc12 | – | – | –
6 | – | COc1ccc(-c2ccc3ncnc(N4CCN(C(=O)Nc5cccc(C)c5)CC4)c3n2)cc1OC [Example 8] | – | – | IC50 [1]: 16 nM; IC50 ([2]; Homo sapiens, PBMC): 70 nM; IC50 ([3]; Homo sapiens, RPMI-1788): 9.4 nM
7 | 196 to 197 | CC(=O)Nc1nc(OC(C)C)c2nc(-c3ccc(F)cc3)ccc2n1 | – | – | –
8 | 233 | CCOc1nc(NC(C)=O)nc2ccc(Cl)nc12 | – | – | –
9 | 200 to 201 | CC(C)Oc1nc(N)nc2ccc(-c3cccc(F)c3)nc12 | – | – | –
10 | – | CCOC(=O)C1CCN(c2nc(N)nc3ccc(-c4ccc(OC)c(OC)c4)nc23)CC1 [Example 26, 2-amino-4-[4-(ethoxycarbonyl)piperidin-1-yl]-6-(3,4-dimethoxyphenyl)pyrido[3,2-d]pyrimidine] | – | – | IC50 [1]: 250 nM; IC50 ([2]; Homo sapiens, PBMC): 60 nM; IC50 ([3]; Homo sapiens, RPMI-1788): 2600 nM
11 | – | COc1ccc(-c2ccc3nc(N)nc(N4CCN(CC(=O)Nc5nccs5)CC4)c3n2)cc1OC [Example 48, 2-amino-4-[2-(piperazin-1-yl)-acetic acid N-(2-thiazolyl)-amide]-6-(3,4-dimethoxyphenyl)-pyrido[3,2-d]pyrimidine] | 60 | 60 | PDE-4 (% inhibition) ([1]; @ 0.06 μM): 59% @ 0.06 μM
12 | – | COc1ccc(-c2ccc3nc(N)nc(N4CCN(C(C)=O)CC4)c3n2)cc1OC [Example 49, 2-amino-4-(N-acetyl-piperazinyl)-6-(3,4-dimethoxyphenyl)-pyrido[3,2-d]pyrimidine] | 40 | 70 | PDE-4 (% inhibition) ([1]; @ 0.04 μM): 48% @ 0.04 μM
13 | 185 | CC(C)COc1nc(N)nc2ccc(-c3cccc(F)c3)nc12 | – | – | –
14 | 159 | CCC(C)Oc1nc(N)nc2ccc(-c3ccccc3F)nc12 (stereo not drawn) | – | – | –
15 | – | CCOc1cc(-c2ccc3ncnc(N4CCN(C(=O)Nc5cccc(Cl)c5)CC4)c3n2)ccc1OC [Example 213, 4-[N-(3-chloro-phenylcarbamoyl)-piperazin-1-yl]-6-(3-ethoxy-4-methoxy-phenyl)-pyrido[3,2-d]pyrimidine] | – | – | PDE-4 (% inhibition) ([1]; @ 0.06 μM): 78% @ 0.06 μM; IC50 ([2]; Homo sapiens, PBMC): 60 nM; IC50 ([3]; Homo sapiens, RPMI-1788): 57 nM
16 | 196 | CC(C)COc1nc(N)nc2ccc(-c3ccc(F)cc3)nc12 | – | – | –
17 | 147 to 148 | CCCCOc1nc(N)nc2ccc(-c3ccccc3F)nc12 | – | – | –

Row | melting point [°C] | SMILES | IC50 [2] [nM] | IC50 [3] [nM] | other results
18 | 168 | CC(=O)Nc1nc(OCC(C)C)c2nc(Cl)ccc2n1 | – | – | –
19 | – | COc1ccc(-c2ccc3ncnc(N4CCN(C(=O)COc5ccc(Cl)cc5)CC4)c3n2)cc1OC [Example 113, 4-[(N-4-chlorophenoxy-acetyl)-piperazin-1-yl]-6-(3,4-dimethoxyphenyl)-pyrido[3,2-d]pyrimidine] | 300 | 40 | PDE-4 (% inhibition) ([1]; @ 0.4 μM): 77% @ 0.4 μM
20 | – | COc1ccc(-c2ccc3nc(N)nc(N4CCN(c5ccccn5)CC4)c3n2)cc1OC [Example 47, 2-amino-4-(2-pyridyl-piperazin-1-yl)-6-(3,4-dimethoxyphenyl)-pyrido[3,2-d]pyrimidine] | 50 | 300 | PDE-4 (% inhibition) ([1]; @ 0.05 μM): 64% @ 0.05 μM
21 | > 330 | Nc1nc2ccc(Cl)nc2c(=O)[nH]1 | – | – | –
22 | – | COc1ccc(-c2ccc3ncnc(N4CCN(C(=O)Nc5cccs5)CC4)c3n2)cc1OC [Example 109] | 130 | 60 | PDE-4 (% inhibition) ([1]; @ 0.09 μM): 58% @ 0.09 μM
23 | 170 | CCCCOc1nc(NC(C)=O)nc2ccc(-c3ccc(F)cc3)nc12 | – | – | –
24 | – | COc1ccc(-c2ccc3nc(N)nc(N4CCN(C(=O)Nc5cccc(Cl)c5)CC4)c3n2)cc1OC [Example 58, 2-amino-4(N-3-chloro-phenyl-carbamoyl-piperazin-1-yl)-6-(3,4-dimethoxy-phenyl)-pyrido[3,2-d]pyrimidine] | 260 | 0.4 | PDE-4 (% inhibition) ([1]; @ 0.1 μM): 75% @ 0.1 μM
25 | – | COc1ccc(-c2ccc3ncnc(N4CCN(C(=O)Nc5cccc(Cl)c5)CC4)c3n2)cc1OC(C)C [Example 214, 4-[N-(3-chloro-phenylcarbamoyl)-piperazin-1-yl]-6-(3-isopropoxy-4-methoxy-phenyl)-pyrido[3,2-d]pyrimidine] | – | – | PDE-4 (% inhibition) ([1]; @ 0.3 μM): 61% @ 0.3 μM; IC50 ([2]; Homo sapiens, PBMC): 300 nM; IC50 ([3]; Homo sapiens, RPMI-1788): 50 nM
26 | – | COc1ccc(-c2ccc3nc(N)nc(OC(C)C)c3n2)cc1OC [Example 24, 2-amino-4-isopropoxy-6-(3,4-dimethoxyphenyl)pyrido[3,2-d]pyrimidine] | – | – | PDE-4 (% inhibition) ([1]; @ 0.5 μM): 29% @ 0.5 μM; IC50 ([2]; Homo sapiens, PBMC): 500 nM; IC50 ([3]; Homo sapiens, RPMI-1788): 66 nM
27 | – | COc1ccc(-c2ccc3nc(N)nc(N4CCN(C(=O)Nc5ccc(F)cc5)CC4)c3n2)cc1OC [Example 56, 2-amino-4(N-4-fluoro-phenyl-carbamoyl-piperazin-1-yl)-6-(3,4-dimethoxy-phenyl)-pyrido[3,2-d]pyrimidine] | 70 | 3 | PDE-4 (% inhibition) ([1]; @ 0.1 μM): 74% @ 0.1 μM
28 | – | COc1ccc(-c2ccc3nc(N)nc(N4CCN(C(=O)Nc5ccsc5)CC4)c3n2)cc1OC [Example 54, 2-amino-4(N-3-thienylcarbamoyl-piperazin-1-yl)-6-(3,4-dimethoxyphenyl)-pyrido[3,2-d]pyrimidine] | 50 | 2 | PDE-4 (% inhibition) ([1]; @ 0.1 μM): 62% @ 0.1 μM
29 | – | COc1ccc(-c2ccc3nc(N)nc(NCCNC(=O)Nc4cccc(C)c4)c3n2)cc1OC [Example 261, 2-amino-4-[(3-methylphenylcarbamoyl)-ethylenediamine-1-N-yl]-6-(3,4-dimethoxyphenyl)-pyrido[3,2-d]pyrimidine] | – | – | PDE-4 (% inhibition) ([1]; @ 10 μM): 86% @ 10 μM; IC50 ([2]; Homo sapiens, PBMC): 800 nM; IC50 ([3]; Homo sapiens, RPMI-1788): 80 nM
30 | – | COc1ccc(-c2ccc3nc(N)nc(N4CCN(c5ccc(F)cc5)CC4)c3n2)cc1OC [Example 43, 2-amino-4-(4-fluorophenyl-piperazin-1-yl)-6-(3,4-dimethoxyphenyl)-pyrido[3,2-d]pyrimidine] | 90 | 300 | PDE-4 (% inhibition) ([1]; @ 0.09 μM): 61% @ 0.09 μM
31 | – | COc1ccc(-c2ccc3nc(N)nc(N4CCN(C(=O)Nc5ccc(F)c(Cl)c5)CC4)c3n2)cc1OC [Example 57, 2-amino-4(N-3-chloro-4-fluoro-phenyl-carbamoyl-piperazin-1-yl)-6-(3,4-dimethoxyphenyl)-pyrido[3,2-d]pyrimidine] | 300 | 4 | PDE-4 (% inhibition) ([1]; @ 0.1 μM): 74% @ 0.1 μM
32 | – | COc1ccc(-c2ccc3ncnc(N4CCN(C(=O)Nc5ccc(F)c(Cl)c5)CC4)c3n2)cc1OC [Example 108, 4-[(N-3-chloro-4-fluorophenylcarbamoyl)-piperazin-1-yl]-6-(3,4-dimethoxy-phenyl)-pyrido[3,2-d]pyrimidine] | 200 | 60 | PDE-4 (% inhibition) ([1]; @ 0.2 μM): 59% @ 0.2 μM
33 | – | O=C(Nc1cccc(Cl)c1)N1CCN(c2ncnc3ccc(-c4ccc5c(c4)OCO5)nc23)CC1 [Example 82, 4-[(N-3-chlorophenylcarbamoyl)-piperazin-1-yl]-6-(3,4-methylenedioxy)phenyl-pyrido[3,2-d]pyrimidine] | – | 300 | PDE-4 (% inhibition) ([1]; @ 10 μM): 31% @ 10 μM
